Assay results reported in PubChem BioAssay AID1963442 (Molecular Pharmacology Branch, DTP, NCI, 2024).

System: MPNST complex spheroid with HUVEC/MSC, growth, % test/control
Test: Anticancer human tumor MPNST cell line growth inhibition [Asc];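 also: compounds left on spheroids for seven days before reading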
Settings: for IC50: curve of first compound; for viability, T/C: stronger effect = lower value
Procedure, shortened: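 Tumor cells were grown as multicellular spheroids with stromal HUVEC and mesenchymal stem cells and treated singly or in combination. Concentrations fell in half-log steps from the clinical Cmax, or from 10 microM where none was known.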

[1] = second compound 0.00316 µM, first compound 0.0316 µM
[2] = second compound 0.00316 µM, first compound 0.1 µM
[3] = second compound 0.00316 µM, first compound 0.316 µM
[4] = second compound 0.00316 µM, first compound 1 µM
[5] = second compound 0.00316 µM, first compound 3.16 µM
[6] = second compound 0.00316 µM, first compound 10 µM
[7] = second compound 0.01 µM, first compound 0.0316 µM
[8] = second compound 0.01 µM, first compound 0.1 µM
[9] = second compound 0.01 µM, first compound 0.316 µM
[10] = second compound 0.01 µM, first compound 1 µM
[11] = second compound 0.01 µM, first compound 3.16 µM
[12] = second compound 0.01 µM, first compound 10 µM
[13] = second compound 0.0316 µM, first compound 0.0316 µM
[14] = second compound 0.0316 µM, first compound 0.1 µM
[15] = second compound 0.0316 µM, first compound 0.316 µM
[16] = second compound 0.0316 µM, first compound 1 µM
[17] = second compound 0.0316 µM, first compound 3.16 µM
[18] = second compound 0.0316 µM, first compound 10 µM
[19] = second compound 0.1 µM, first compound 0.0316 µM
[20] = second compound 0.1 µM, first compound 0.1 µM
[21] = second compound 0.1 µM, first compound 0.316 µM
[22] = second compound 0.1 µM, first compound 1 µM
[23] = second compound 0.1 µM, first compound 3.16 µM
[24] = second compound 0.1 µM, first compound 10 µM
[25] = second compound 0.316 µM, first compound 0.0316 µM
[26] = second compound 0.316 µM, first compound 0.1 µM
[27] = second compound 0.316 µM, first compound 0.316 µM
[28] = second compound 0.316 µM, first compound 1 µM
[29] = second compound 0.316 µM, first compound 3.16 µM
[30] = second compound 0.316 µM, first compound 10 µM
[31] = second compound 1 µM, first compound 0.0316 µM
[32] = second compound 1 µM, first compound 0.1 µM
[33] = second compound 1 µM, first compound 0.316 µM
[34] = second compound 1 µM, first compound 1 µM
[35] = second compound 1 µM, first compound 3.16 µM
[36] = second compound 1 µM, first compound 10 µM

Structure (SMILES): C=C(F)C(=O)N1CCN(c2nc(OCC3CCCN3C)nc3c2CCN(c2cccc4cccc(Cl)c24)C3)CC1CC#N (centres undefined) + CNC(C)C(=O)NC1CN(S(=O)(=O)c2cccc(S(=O)(=O)N3CCC4CCC(C(=O)NC(c5ccccc5)c5ccccc5)N4C(=O)C(NC(=O)C(C)NC)C3)c2)CCC2CCC(C(=O)NC(c3ccccc3)c3ccccc3)N2C1=O
- IC50 (second compound 0.00316 µM): 3.75 µM
- IC50 (second compound 0.01 µM): 4.2 µM
- IC50 (second compound 0.0316 µM): 1.81 µM
- IC50 (second compound 0.1 µM): 3.55 µM
- IC50 (second compound 0.316 µM): 3.43 µM
- IC50 (second compound 1 µM): 3.64 µM
- viability, T/C [1]: 77%
- viability, T/C [2]: 75.2%
- viability, T/C [3]: 65.9%
- viability, T/C [4]: 89.8%
- viability, T/C [5]: 58.3%
- viability, T/C [6]: 1.84%
- viability, T/C [7]: 85.9%
- viability, T/C [8]: 75.9%
- viability, T/C [9]: 97.4%
- viability, T/C [10]: 85%
- viability, T/C [11]: 66.2%
- viability, T/C [12]: 0.9%
- viability, T/C [13]: 99.4%
- viability, T/C [14]: 76.5%
- viability, T/C [15]: 81.4%
- viability, T/C [16]: 54.6%
- viability, T/C [17]: 46.9%
- viability, T/C [18]: 1%
- viability, T/C [19]: 79.3%
- viability, T/C [20]: 58.5%
- viability, T/C [21]: 88.4%
- viability, T/C [22]: 73.5%
- viability, T/C [23]: 55.6%
- viability, T/C [24]: 1.36%
- viability, T/C [25]: 103%
- viability, T/C [26]: 52.8%
- viability, T/C [27]: 61%
- viability, T/C [28]: 69.5%
- viability, T/C [29]: 57%
- viability, T/C [30]: 1.32%
- viability, T/C [31]: 91.9%
- viability, T/C [32]: 60.4%
- viability, T/C [33]: 51%
- viability, T/C [34]: 77.1%
- viability, T/C [35]: 56.8%
- viability, T/C [36]: 0.71%

Structure (SMILES): COc1c(OCCCN2CCOCC2)ccc2c3n(c(=NC(=O)c4cnc(N)nc4)nc12)CCN3 + Cc1c(S(C)(=O)=O)c(-c2cc(F)cc(N3CCN(c4ccc(NS(=O)(=O)c5ccc(NC(CCN6CCC(C(=O)OCCCP(=O)(O)O)CC6)CSc6ccccc6)c(S(=O)(=O)C(F)(F)F)c5)cc4)CC3)c2)c(-c2ccc(Cl)cc2)n1C(C)C
- IC50 (second compound 0.1 µM): 0.0681 µM
- IC50 (second compound 0.316 µM): 0.0503 µM
- IC50 (second compound 1 µM): 0.0628 µM
- IC50 (second compound 3.16 µM): 0.0317 µM
- IC50 (second compound 10 µM): 0.0293 µM
- viability, T/C (second compound 0.1 µM, first compound 0.00316 µM): 60.5%
- viability, T/C (second compound 0.1 µM, first compound 0.01 µM): 71.7%
- viability, T/C [19]: 62.3%
- viability, T/C [20]: 41.8%
- viability, T/C [21]: 30.4%
- viability, T/C [22]: 18.6%
- viability, T/C (second compound 0.316 µM, first compound 0.00316 µM): 72.6%
- viability, T/C (second compound 0.316 µM, first compound 0.01 µM): 62.3%
- viability, T/C [25]: 61.7%
- viability, T/C [26]: 35%
- viability, T/C [27]: 23.8%
- viability, T/C [28]: 16.8%
- viability, T/C (second compound 1 µM, first compound 0.00316 µM): 75.9%
- viability, T/C (second compound 1 µM, first compound 0.01 µM): 77.1%
- viability, T/C [31]: 62.4%
- viability, T/C [32]: 40.1%
- viability, T/C [33]: 25.2%
- viability, T/C [34]: 14.4%
- viability, T/C (second compound 3.16 µM, first compound 0.00316 µM): 79.3%
- viability, T/C (second compound 3.16 µM, first compound 0.01 µM): 69.5%
- viability, T/C (second compound 3.16 µM, first compound 0.0316 µM): 49.7%
- viability, T/C (second compound 3.16 µM, first compound 0.1 µM): 31.1%
- viability, T/C (second compound 3.16 µM, first compound 0.316 µM): 18.9%
- viability, T/C (second compound 3.16 µM, first compound 1 µM): 16.8%
- viability, T/C (second compound 10 µM, first compound 0.00316 µM): 90.1%
- viability, T/C (second compound 10 µM, first compound 0.01 µM): 71.8%
- viability, T/C (second compound 10 µM, first compound 0.0316 µM): 48.5%
- viability, T/C (second compound 10 µM, first compound 0.1 µM): 27.5%
- viability, T/C (second compound 10 µM, first compound 0.316 µM): 18.3%
- viability, T/C (second compound 10 µM, first compound 1 µM): 8.75%

Structure (SMILES): C#Cc1c(F)ccc2cc(O)cc(-c3ncc4c(N5CC6CCC(C5)N6)nc(OCC56CCCN5CC(F)C6)nc4c3F)c12 (centres undefined) + CNC(C)C(=O)NC1CN(S(=O)(=O)c2cccc(S(=O)(=O)N3CCC4CCC(C(=O)NC(c5ccccc5)c5ccccc5)N4C(=O)C(NC(=O)C(C)NC)C3)c2)CCC2CCC(C(=O)NC(c3ccccc3)c3ccccc3)N2C1=O
- IC50 (second compound 0.00316 µM): > 10 µM
- IC50 (second compound 0.01 µM): > 10 µM
- IC50 (second compound 0.0316 µM): > 10 µM
- IC50 (second compound 0.1 µM): > 10 µM
- IC50 (second compound 0.316 µM): > 10 µM
- IC50 (second compound 1 µM): > 10 µM
- viability, T/C [1]: 65.6%
- viability, T/C [2]: 43.9%
- viability, T/C [3]: 57.7%
- viability, T/C [4]: 78.2%
- viability, T/C [5]: 75.3%
- viability, T/C [6]: 53%
- viability, T/C [7]: 96%
- viability, T/C [8]: 99.5%
- viability, T/C [9]: 60.1%
- viability, T/C [10]: 63.5%
- viability, T/C [11]: 73.1%
- viability, T/C [12]: 46.2%
- viability, T/C [13]: 103%
- viability, T/C [14]: 66.8%
- viability, T/C [15]: 69%
- viability, T/C [16]: 70.5%
- viability, T/C [17]: 52.1%
- viability, T/C [18]: 56.6%
- viability, T/C [19]: 56%
- viability, T/C [20]: 67.8%
- viability, T/C [21]: 78.2%
- viability, T/C [22]: 64.1%
- viability, T/C [23]: 63.2%
- viability, T/C [24]: 53.1%
- viability, T/C [25]: 73.2%
- viability, T/C [26]: 75.1%
- viability, T/C [27]: 70%
- viability, T/C [28]: 58.3%
- viability, T/C [29]: 60.3%
- viability, T/C [30]: 67.3%
- viability, T/C [31]: 76%
- viability, T/C [32]: 79.5%
- viability, T/C [33]: 69.4%
- viability, T/C [34]: 82.5%
- viability, T/C [35]: 62.2%
- viability, T/C [36]: 84.3%
